Read-outs that look alike come from different tables or passages of the source.
Key:
[1] = target: T1, A-isoform of the human α1-AR (CHO-α1) (Homo sapiens, UniProt P35348); assay: Intracellular calcium (Cai) mobilization in CHO-α1 cells; assay type: cell-based
T1 construct: expressed in transfected cells; host or cells: CHO (Chinese hamster ovary) cells, stably transfected
T1 sequence (P35348 1-466): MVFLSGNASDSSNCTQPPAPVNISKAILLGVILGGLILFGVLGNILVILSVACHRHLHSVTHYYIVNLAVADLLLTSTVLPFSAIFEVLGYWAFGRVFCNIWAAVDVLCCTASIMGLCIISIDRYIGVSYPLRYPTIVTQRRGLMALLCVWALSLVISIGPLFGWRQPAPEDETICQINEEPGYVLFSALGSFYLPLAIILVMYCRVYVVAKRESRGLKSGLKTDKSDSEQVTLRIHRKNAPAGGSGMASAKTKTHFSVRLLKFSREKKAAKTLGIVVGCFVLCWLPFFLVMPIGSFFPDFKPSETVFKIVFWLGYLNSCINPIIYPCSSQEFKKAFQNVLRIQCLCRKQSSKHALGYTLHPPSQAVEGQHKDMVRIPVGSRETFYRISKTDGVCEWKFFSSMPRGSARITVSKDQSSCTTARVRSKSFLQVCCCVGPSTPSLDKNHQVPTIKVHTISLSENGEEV
Procedure: The data represent mean values of independent measurements of three individual cell populations. A: Time dependence of Cai mobilization by patient IgG compared to the α1-AR agonist phenylephrine (PE). The addition of patient IgG preparation and PE is indicated by the arrow. The additions were (▴) 2.5 μg patient IgG; (▪) 5 μg patient IgG; (●) 5 μM PE. B: Effect of 5 μg human control IgG (Δ) and 5 μg patient IgG (♦) on Cai mobilization. The addition of IgG preparations is indicated by the arrow. C: Inhibitory effect of preincubation of patient IgG with the free α1-AR loop1 peptide. Patient IgG was preincubated with 0.25 μM peptide for 15 minutes before addition to the cells. Peak values (five of each individual measurement) were taken for assessing the decrement in Cai mobilization. […]
The potential of patients IgG fractions to mobilise intracellular calcium (Cai) was assessed using Chinese hamster ovary cells stably transfected with the A-isoform of the human α1-AR (CHO-α1). The cells were trypsinized and plated on black clear bottom 96-well plates suited for fluorescence measurements (Greiner) at a density of 30 000 cells per well. […] Cai was measured on a Perkin Elmer Victor X2 fluorescence multiplate reader equipped with an injector unit. The cells were excited at wave lengths alternating between 340 nm and 380 nm and the fluorescence signal emitted at 510 nm was recorded. […]

[2] = system: spontaneously contracting neonatal cardiomyocytes; assay: Cardiomyocyte contraction bioassay: chronotropic response to patient IgG after preincubation with receptor loop peptides; assay type: cell-based, rat; conditions: IgG from three AD/vascular dementia patients preincubated 1 hour at 4° C. with 1 μg peptide per 1 μg IgG protein
Procedure: Cultures of neonatal cardiomyocytes were prepared from new-born, one to three days old rats essentially as described in [15]. Chinese hamster ovary cells stably transfected with the A-isoform of the human α1-AR (CHO-α1) were grown in F12 HAM medium supplemented with glutamine, 10% FCS and 1% penicillin streptomycin at 37° C. and 5% CO2.
Functional autoantibodies were detected utilizing the chronotropic responses of cultivated spontaneously contracting neonatal cardiomyocytes. For monitoring the contraction rate of neonatal cardiomyocytes a standardized bioassay based on computer-assisted recording of the contraction rate was employed.
Immunoglobulin (IgG) fractions from serum samples were prepared according to a standard procedure as described in [6]. Patients IgG were added to cultures of neonatal cardiomyocytes to a final dilution of 1:40. After incubation at 37° C. for 60 minutes, the pulsation rate was measured. A total of up to 30 cells or cell clusters for each sample of a given immunoglobulin fraction was analysed. The chronotropic response to the exposition to patient IgG compared to preceding control recordings is given as increases in the number of contractions per minute. Identification of the target GPCR type was performed using specific receptor antagonists, 10^-7 M prazosin to block the α1-AR and 10^-7 M ICI […] for the β2-AR.
For mapping of the target site of agonistic autoantibodies on the receptor, IgG fractions were preincubated for 1 hour at 4° C. with an excess of synthetic peptides corresponding to amino acid sequences of the extracellular loop1 (LGYWAFGRVFCN) or the extracellular loop2 (PAPEDETICQINEE) of the human α1-AR (1 μg peptide per 1 μg IgG protein).

[3] = target: patient IgG (agAAB to the α1-AR); assay: ELISA competition of patient IgG binding to the immobilized peptide by free α1-AR loop1 peptide; set-up: species or system human; conditions: free peptide 0.3 nM up to 5 μM, patient IgG preincubated with free peptide 15 minutes, nonlinear regression, read-out: EC50 value, competition of IgG binding to the immobilized peptide by soluble α1-AR loop 1 peptide
Procedure: Shown are data from representative experiments run in triplicates. Values are corrected for unspecific binding. A: Dependence of antibody binding on patient IgG protein. The given amount of IgG protein refers to 100 μl reaction volume (□) binding in the presence of 0.15 M NaCl; (●) binding in the presence of 0.5 M NaCl. B: Time-dependence of antibody binding. C: Competition of binding by increasing concentrations of the free α1-AR loop1 peptide. Concentrations of the free peptide ranged from 0.3 nM to 5.0 μM. The patient IgG was preincubated with the free peptide in solution for 15 minutes.
The binding of agonistic IgG preparations was characterized using standard ELISA techniques. Briefly, biotinylated peptides corresponding to either the first or the second extracellular loop of the human α1A-AR were coupled to pre-blocked streptavidin-coated 96-well plates (Pierce). All experimental steps were performed at room temperature. If not indicated otherwise, 5 μg of IgG protein was used and the incubation time was 30 minutes. As secondary antibody anti-human horseradish conjugated anti-IgG was used. The antibody binding was visualized by the 1-Step Ultra TMB ELISA (Thermo Scientific). The optical density was quantified at 450 nm using a SLT Spectra multiplate reader (TECAN).

Effect of the peptide itself on Cai ([1]; CHO-α1 cells, peptide alone) | Effect of peptide preincubation on elevation of Cai by patient IgG ([1]; patient IgG preincubated with 0.25 μM peptide for 15 minutes, p<0.01) | Effect of peptide preincubation on chronotropic response to patient IgG [2] | Effect of peptide preincubation on chronotropic response to patient IgG ([2]; listed as L1 peptide) | EC50 ([3]; listed as extracellular loop1 peptide) | EC50 ([3]; listed as α1-AR loop 1 peptide) | Sequence
no effect | reduced significantly | nearly abolished | abolished | 30 nM | ~30 nM | LGYWAFGRVFCN [loop1 peptide, synthetic peptide corresponding to extracellular loop1 of the human α1-AR]
 |  | did not affect |  |  |  | PAPEDETICQINEE (listed as Homo sapiens) [loop2 peptide, synthetic peptide corresponding to extracellular loop2 of the human α1-AR]
